{"source": "patent US11254688B2", "about": "(Boehringer Ingelheim International GmbH, priority 2018, dated 2022)"}
{"molecular_target": "T1, hGOAT (Homo sapiens, UniProt Q96T53)", "T1 construct": "expressed in transfected cells; host or cells: HEK293 (Hek293 hGOAT/PPGhrl Clone #1B8)", "T1 sequence (Q96T53 1-435)": "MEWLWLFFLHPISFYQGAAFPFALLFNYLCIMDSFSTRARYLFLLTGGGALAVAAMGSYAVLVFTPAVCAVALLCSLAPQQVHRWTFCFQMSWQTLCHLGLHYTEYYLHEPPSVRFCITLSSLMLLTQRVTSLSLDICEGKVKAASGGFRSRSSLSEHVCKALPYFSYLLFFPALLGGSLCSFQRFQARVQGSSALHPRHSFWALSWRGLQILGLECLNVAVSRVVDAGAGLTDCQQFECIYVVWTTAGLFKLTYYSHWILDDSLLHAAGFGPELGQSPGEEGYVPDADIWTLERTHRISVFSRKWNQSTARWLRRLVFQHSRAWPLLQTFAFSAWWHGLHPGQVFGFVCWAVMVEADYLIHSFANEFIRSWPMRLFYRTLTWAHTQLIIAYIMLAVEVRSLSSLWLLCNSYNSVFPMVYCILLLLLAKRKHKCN", "test": "Determination of hGOAT activity in HEK293 cells after incubation with test compound (acyl-ghrelin ELISA)", "format": "cell-based", "conditions": "HEK293 cells stably transfected with preproghrelin and human GOAT; octanoate-BSA 100 μM; 5 hours incubation; acyl-ghrelin in medium by ELISA; 8 compound concentrations", "method": "Determination of hGOAT Activity in HEK293 Cells after Incubation with Test Compound\nHEK293 cells stably transfected with two expression vectors, one coding for preproghrelin cDNA and a second for the expression of human GOATcDNA are used as a cellular model. After feeding the cells with octanoic acid for 5 hours, acyl-ghrelin is measured in cell culture medium by an ELISA procedure.\nCellline: Hek293 hGOAT/PPGhrl Clone #1B8Sodium octanoate, Sigma, Cat.-No. C5038\nBD Poly-D-Lysin 384-well Plates, black-clear polystyrene BD Bioscience Cat.-No. […] ELISA human acylated Ghrelin Kit purchased from Bertin Pharman (detailed composition of buffers e.g. wash-puffer, ELISA buffer not known)\nCells are plated with a density of 5000 cells/well in 384-well poly-D-lysin plates and incubated for 1 day at 37° C., 5% CO2 in DMEM medium, 10% FCS, 1×NEAA, Puromycin (0.5 μg/ml) and G418 (1 mg/ml). Then the medium is changed to a identical medium without FCS and containing Octanoate-BSA (final concentration 100 μM each) and compound in DMSO (final DMSO concentration 0,3%). After incubation for 5 hours acylghrelin in the medium is measured by ELISA.\nThe medium sample is diluted 1:25 in Elisa buffer, a 25 μl aliquot is transferred to a 384-well ELISA plate previously washed 4 times with 100 μL wash buffer, and 25 μl tracer-solution is added. After incubation overnight (˜20 h) at 4° C. temperature the plate is washed 4 times with 100 μl wash-buffer per well. Finally 50 μl Ellman's reagent is added to each well and the plate is incubated in the dark for 20 minutes. The absorbance is measured at 405 nm in an Envision multilabel reader and the amount of acylated ghrelin is calculated according to a acylated ghrelin standard curve provided in the same plate.\nThe analysis of the data is performed by calculation of the percentage of acyl-ghrelin produced in the presence of test compound compared to the amount of acyl-ghrelin produced in the vehicle control samples. An inhibitor of the GOAT enzyme will give values between 100% CTL (no inhibition) and 0% CTL (complete inhibition).\nIC50 values are calculated with Assay Explorer or other suited software based on curve fitting of results of 8 different compound concentrations.", "units": {"IC50": "nM"}}
{"smiles": "Cc1nc2nonc2c(N)c1Cc1ccc(C#N)c(OC(F)(F)F)c1", "note": "[Compound 4.43, 4-({7-Amino-5-methyl-[1,2,5]oxadiazolo[3,4-b]pyridin-6-yl}methyl)-2-(trifluoromethoxy)benzonitrile]", "IC50": 0.052}
{"smiles": "Cc1nc2nonc2c(N)c1Cc1ccc(F)c(Br)c1", "note": "[Compound 4.44, 6-(3-Bromo-4-fluoro-benzyl)-5-methyl-[1,2,5]oxadiazolo[3,4-b]pyridin-7-ylamine]", "IC50": 0.573}
{"smiles": "Cc1nc2nonc2c(N)c1Cc1ccc(C#N)c(Br)c1", "note": "[Compound 4.45, 4-(7-Amino-5-methyl-[1,2,5]oxadiazolo[3,4-b]pyridin-6-ylmethyl)-2-bromo-benzonitrile]", "IC50": 0.233}
{"smiles": "Cc1nc2nonc2c(N)c1Cc1ccc(OC(F)(F)F)cc1F", "note": "[Compound 4.46, 6-(2-Fluoro-4-trifluoromethoxy-benzyl)-5-methyl-[1,2,5]oxadiazolo[3,4-b]pyridin-7-ylamine]", "IC50": 0.052}
{"smiles": "Cc1nc2nonc2c(N)c1Cc1cccnc1OC(F)F", "note": "[Compound 4.47, 6-{[2-(Difluoromethoxy)pyridin-3-yl]methyl}-5-methyl-[1,2,5]oxadiazolo[3,4-b]pyridin-7-amine]", "IC50": 1.8}
{"smiles": "Cc1nc2nonc2c(N)c1Cc1ccnc(OC(F)F)c1", "note": "[Compound 4.48, 6-(2-Difluoromethoxy-pyridin-4-ylmethyl)-5-methyl-[1,2,5]oxadiazolo[3,4-b]pyridin-7-ylamine]", "IC50": 3}
{"smiles": "Cc1nc2nonc2c(N)c1Cc1cnc(OC(F)F)c(C#N)c1", "note": "[Compound 4.49, 5-({7-Amino-5-methyl-[1,2,5]oxadiazolo[3,4-b]pyridin-6-yl}methyl)-2-(difluoromethoxy)pyridine-3-carbonitrile]", "IC50": 35.7}
{"smiles": "Cc1nc2nonc2c(N)c1Cc1ccc(F)cc1", "note": "[Compound 4.50, 6-[(4-Fluorophenyl)methyl]-5-methyl-[1,2,5]oxadiazolo[3,4-b]pyridin-7-amine]", "IC50": 0.751}
{"smiles": "COc1cccc(Cc2c(C)nc3nonc3c2N)c1", "note": "[Compound 4.51, 6-[(3-Methoxyphenyl)methyl]-5-methyl-[1,2,5]oxadiazolo[3,4-b]pyridin-7-amine]", "IC50": 0.673}
{"smiles": "Cc1nc2nonc2c(N)c1Cc1cc(F)c(F)c(F)c1", "note": "[Compound 4.52, 5-Methyl-6-[(3,4,5-trifluorophenyl)methyl]-[1,2,5]oxadiazolo[3,4-b]pyridin-7-amine]", "IC50": 1.59}
{"smiles": "COc1ccc(Cc2c(C)nc3nonc3c2N)cc1", "note": "[Compound 4.53, 6-[(4-Methoxyphenyl)methyl]-5-methyl-[1,2,5]oxadiazolo[3,4-b]pyridin-7-amine]", "IC50": 0.147}
{"smiles": "Cc1nc2nonc2c(N)c1Cc1cccc(OC(F)F)c1", "note": "[Compound 4.54, 6-{[3-(Difluoromethoxy)phenyl]methyl}-5-methyl-[1,2,5]oxadiazolo[3,4-b]pyridin-7-amine]", "IC50": 0.495}
{"smiles": "Cc1nc2nonc2c(N)c1Cc1ccnc(Cl)c1", "note": "[Compound 4.55, 6-[(2-Chloropyridin-4-yl)methyl]-5-methyl-[1,2,5]oxadiazolo[3,4-b]pyridin-7-amine]", "IC50": 6.27}
{"smiles": "Cc1nc2nonc2c(N)c1Cc1ccnc(OC(F)(F)F)c1", "note": "[Compound 4.56, 5-Methyl-6-{[2-(trifluoromethoxy)pyridin-4-yl]methyl}-[1,2,5]oxadiazolo[3,4-b]pyridin-7-amine]", "IC50": 0.519}
{"smiles": "Cc1nc2nonc2c(N)c1Cc1ccc(C(F)(F)F)c(C#N)c1", "note": "[Compound 4.57, 5-({7-Amino-5-methyl-[1,2,5]oxadiazolo[3,4-b]pyridin-6-yl}methyl)-2-(trifluoromethyl)benzonitrile]", "IC50": 0.121}
{"smiles": "Cc1nc2nonc2c(N)c1Cc1ccc(OC(F)(F)F)nc1", "note": "[Compound 4.58, 5-Methyl-6-{[6-(trifluoromethoxy)pyridin-3-yl]methyl}-[1,2,5]oxadiazolo[3,4-b]pyridin-7-amine]", "IC50": 0.752}
{"smiles": "Cc1nc2nonc2c(N)c1Cc1ccc(C#N)c(C#N)c1", "note": "[Compound 4.59, 4-({7-Amino-5-methyl-[1,2,5]oxadiazolo[3,4-b]pyridin-6-yl}methyl)benzene-1,2-dicarbonitrile]", "IC50": 2.51}
{"smiles": "Cc1nc2nonc2c(N)c1Cc1cnc(C(F)(F)F)c(C#N)c1", "note": "[Compound 4.60, 5-({7-Amino-5-methyl-[1,2,5]oxadiazolo[3,4-b]pyridin-6-yl}methyl)-2-(trifluoromethyl)pyridine-3-carbonitrile]", "IC50": 6.74}
{"smiles": "Cc1nc2nonc2c(N)c1Cc1ccc(Br)c(C#N)c1", "note": "[Compound 4.61, 5-({7-Amino-5-methyl-[1,2,5]oxadiazolo[3,4-b]pyridin-6-yl}methyl)-2-bromobenzonitrile]", "IC50": 0.542}
{"smiles": "Cc1nc2nonc2c(N)c1Cc1cccc(OCF)c1", "note": "[Compound 8.1, 6-{[3-(Fluoromethoxy)phenyl]methyl}-5-methyl-[1,2,5]oxadiazolo[3,4-b]pyridin-7-amine]", "IC50": 1.09}
{"smiles": "Nc1c(Cc2ccc(C(F)(F)F)cc2)c(C(F)(F)F)nc2nonc12", "note": "[Compound 9.1, 5-(Trifluoromethyl)-6-{[4-(trifluoromethyl)phenyl]methyl}-[1,2,5]oxadiazolo[3,4-b]pyridin-7-amine]", "IC50": 9.47}
{"smiles": "Cc1nc2nonc2c(N)c1Cc1ccc(O)cc1", "note": "[Compound 10.1, 4-(7-Amino-5-methyl-[1,2,5]oxadiazolo[3,4-b]pyridin-6-ylmethyl)-phenol]", "IC50": 0.594}
{"smiles": "Nc1c(Cc2ccc(OC(F)(F)F)cc2)c(CF)nc2nonc12", "note": "[Compound 11.1, 5-(Fluoromethyl)-6-{[4-(trifluoromethoxy)phenyl]methyl}-[1,2,5]oxadiazolo[3,4-b]pyridin-7-amine]", "IC50": 0.068}
{"smiles": "Cc1nc2nonc2c(N)c1Cc1cccc(-c2ccn[nH]2)c1", "note": "[Compound 12.1, 5-Methyl-6-{[3-(1H-pyrazol-5-yl)phenyl]methyl}-[1,2,5]oxadiazolo[3,4-b]pyridin-7-amine]", "IC50": 0.079}
{"smiles": "Cc1nc2nonc2c(N)c1Cc1ccc(OC(F)(F)F)c(-c2cc[nH]n2)c1", "note": "[Compound 12.2, 5-Methyl-6-[3-(1H-pyrazol-3-yl)-4-trifluoromethoxy-benzyl]-[1,2,5]oxadiazolo[3,4-b]pyridin-7-ylamine]", "IC50": 0.043}
{"smiles": "Cc1nc2nonc2c(N)c1Cc1ccc(-c2ccsc2C#N)nc1", "note": "[Compound 12.3, 3-[5-(7-Amino-5-methyl-[1,2,5]oxadiazolo[3,4-b]pyridin-6-ylmethyl)-pyridin-2-yl]-thiophene-2-carbonitrile]", "IC50": 0.509}
{"smiles": "Cc1nc2nonc2c(N)c1Cc1ccc(-c2cscc2C#N)nc1", "note": "[Compound 12.4, 4-[5-(7-Amino-5-methyl-[1,2,5]oxadiazolo[3,4-b]pyridin-6-ylmethyl)-pyridin-2-yl]-thiophene-3-carbonitrile]", "IC50": 1.52}
{"smiles": "Cc1nc2nonc2c(N)c1Cc1ccc(-c2ccc(C#N)s2)nc1", "note": "[Compound 12.5, 5-[5-(7-Amino-5-methyl-[1,2,5]oxadiazolo[3,4-b]pyridin-6-ylmethyl)-pyridin-2-yl]-thiophene-2-carbonitrile]", "IC50": 3.66}
{"smiles": "Cc1nc2nonc2c(N)c1Cc1ccc(-c2c(C)noc2C)nc1", "note": "[Compound 12.6, 6-{[6-(3,5-Dimethyl-1,2-oxazol-4-yl)pyridin-3-yl]methyl}-5-methyl-[1,2,5]oxadiazolo[3,4-b]pyridin-7-amine]", "IC50": 0.402}
{"smiles": "Cc1nc2nonc2c(N)c1Cc1ccc(-c2cn(C)nc2C(F)(F)F)nc1", "note": "[Compound 12.7, 5-Methyl-6-({6-[1-methyl-3-(trifluoromethyl)-1H-pyrazol-4-yl]pyridin-3-yl}methyl)-[1,2,5]oxadiazolo[3,4-b]pyridin-7-amine]", "IC50": 1.17}
{"smiles": "Cc1nc2nonc2c(N)c1Cc1ccc(-c2cncn2C)nc1", "note": "[Compound 12.8, 5-Methyl-6-{[6-(1-methyl-1H-imidazol-5-yl)pyridin-3-yl]methyl}-[1,2,5]oxadiazolo[3,4-b]pyridin-7-amine]", "IC50": 0.531}
{"smiles": "Cc1nc2nonc2c(N)c1Cc1ccc(-c2ccco2)nc1", "note": "[Compound 12.9, 6-{[6-(Furan-2-yl)pyridin-3-yl]methyl}-5-methyl-[1,2,5]oxadiazolo[3,4-b]pyridin-7-amine]", "IC50": 1.49}
